Values quoted from earlier work, collected in patent US20030073115A1 (priority 2002, published 2003).

Key:
CNS galanin receptors = settings: CNS / brain
[1] = test system: gastrointestinal smooth muscle
[2] = test system: Galanin receptors in the dorsal hippocampus

Compound	activity at CNS galanin receptors (CNS galanin receptors)	activity in gastrointestinal smooth muscle [1]	affinity [2]
CSCC[C@H](NC(=O)[C@H](CC(C)C)NC(=O)CNC(=O)[C@H](Cc1ccccc1)NC(=O)[C@H](Cc1ccccc1)NC(=O)[C@H](CCC(N)=O)NC(=O)[C@H](CCC(N)=O)NC(=O)[C@@H]1CCCN1C(=O)CNC(=O)[C@H](CC(C)C)NC(=O)[C@H](CC(C)C)NC(=O)[C@H](Cc1ccc(O)cc1)NC(=O)CNC(=O)[C@H](C)NC(=O)[C@H](CO)NC(=O)[C@H](CC(N)=O)NC(=O)[C@H](CC(C)C)NC(=O)[C@@H](NC(=O)[C@H](Cc1c[nH]c2ccccc12)NC(=O)CN)[C@@H](C)O)C(N)=O [M15]	antagonist	full agonist	–
Gal (1-15): galanin fragment 1-15	–	–	high affinity
